# Legend:
# [1] = tested on: E. coli ATCC 25922; assay: Thioflavin S fluorescence imaging of intracellular aggregation; format: cell-based; conditions: 29 and peptoid 1 at 4 × MIC, control peptides 2 × MIC
# [2] = tested on: E. coli ATCC 25922; format: cell-based; conditions: ODT, 30 min treatment; buforin-II 25 µM, melittin 25 µM, 29 4 × MIC
# Procedure: Three‐dimensional (3D) optical diffraction tomography (ODT) and fluorescence images of live bacterial cells were obtained using an HT‐2H Mach−Zehnder interferometric microscope, combining both ODT and fluorescence imaging into a single unit (Tomocube, Daejon, South Korea). 3D Fluorescence imaging was carried out, using three light sources (385, 470, and 565 nm) via serial fluorescence image acquisition in multiple planes followed by 3D deconvolution. 3D correlative imaging, using a combination of ODT and fluorescence imaging was performed using commercial software (TomoStudioTM, Tomocube) as described previously^[ [23c] ^] Bacterial cells were grown overnight and diluted (≈10^7 CFU mL^−1) in cation‐adjusted MHB2 media. The cells were loaded onto 50 mm imaging dishes with a #1.5H glass coverslip bottom (TomoDish, Tomocube) that were precoated with 0.01% (w/v) poly‐L‐lysine (Sigma‐Aldrich) in water. After 30 min incubation at room temperature, the coverslips were washed twice with PBS (pH 7.4) to remove unattached cells, and the media was replaced with PBS for the duration of the imaging. To monitor the change in bacterial morphology, bacterial cells were treated with a peptoid (or with control AMPs) in PBS containing FM4‐64 (10 µg mL^−1) or propidium iodide (10 µg mL^−1). To analyze 3D refractive index (RI) tomograms, individual bacteria were captured using ODT equipped with a digital micromirror device (Tomocube). In more detail, the light scattered by the bacterial cells was collected by an objective lens (NA = 1.2, water dipping, UPLSAPO 60XW, Olympus) and recorded by a digital image sensor (CMOS camera, FL3‐U313Y3M‐C, FLIR Systems). Using a field retrieval algorithm, the amplitude and phase images were retrieved from the obtained multiple holograms, and then the 3D RI distribution was determined.
# The analysis tool in the TomoStudio software (Tomocube) was used to measure specific values, including the refractive index (RI) and the cell volume of bacteria. These values were determined from RI increments (RII) of 0.190 fL pg^−1, which is known as a representative value and was assumed to be the same for most proteins.^[ [46] ^]
# [3] = Analytical reversed-phase HPLC elution (hydrophobicity); format: physicochemical; conditions: Table 1; analytical RP-HPLC, SunFire C18 […] 250 mm, water/ACN + 0.1% TFA, 5% B 2 min then linear to 100% B over 30 min, 1 mL/min, UV 220 nm; used as measure of hydrophobicity
# In short: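 Analytical reversed-phase HPLC on a C18 column (4.6 × 250 mm, 5 μm) at 1 mL/min, water/acetonitrile each with 0.1% TFA. Held at 5% B for 2 min, then linear to 100% B over 30 min and held 5 min, with UV detection at 220 nm; retention time (tR) serves as hydrophobicity measure.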
# [4] = tested on: rat erythrocytes; assay: Hemolysis assay; format: cell-based; conditions: percentage of hemolysis at the highest concentration tested (100 µM), rat erythrocytes
# In short: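 Washed Sprague-Dawley rat erythrocytes (10% suspension in PBS pH 7.4) mixed with peptoids (0–100 µM), 60 min at 37 °C; supernatant A540 expressed as % of 1% Triton X-100 lysis. HC10/HC50 are concentrations giving 10%/50% hemolysis; Hmax is hemolysis at 100 µM.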
smiles,measurement,setting,value
"CC[C@H](C)[C@H](NC(=O)CN)C(=O)NCC(=O)N[C@@H](C)C(=O)N[C@H](C(=O)N[C@@H](CC(C)C)C(=O)N[C@@H](CCCCN)C(=O)N[C@H](C(=O)N[C@@H](CC(C)C)C(=O)N[C@H](C(=O)N[C@H](C(=O)NCC(=O)N[C@@H](CC(C)C)C(=O)N1CCC[C@H]1C(=O)N[C@@H](C)C(=O)N[C@@H](CC(C)C)C(=O)N[C@H](C(=O)N[C@@H](CO)C(=O)N[C@@H](Cc1c[nH]c2ccccc12)C(=O)N[C@H](C(=O)N[C@@H](CCCCN)C(=O)N[C@@H](CCCNC(=N)N)C(=O)N[C@@H](CCCCN)C(=O)N[C@@H](CCCNC(=N)N)C(=O)N[C@@H](CCC(N)=O)C(=O)N[C@@H](CCC(N)=O)C(N)=O)[C@@H](C)CC)[C@@H](C)CC)[C@@H](C)O)[C@@H](C)O)C(C)C)C(C)C [Melittin, reference compound]",Th S fluorescence (intracellular biomass aggregation),[1],enhanced Th S fluorescence
same,change of cell volume,[2],notable reduction in cell volume
same,change of mean RI value versus control cells,[2],significantly increased mean RI values
same,HPLC elution (%ACN),[3],55.4 %ACN
same,H max (100 µM),[4],105.7 ± 17.6%
